Measurements published in ChEMBL document CHEMBL1697821, “Development of a phospholipidosis database and predictive quantitative structure-activity relationship (QSAR) models” (Toxicol Mech Methods, 2008).

Each compound was assayed on Phospholipidosis (assay: Literature-mined public compounds from Kruhlak et al phospholipidosis modelling dataset).

Q: For `NC[C@@H]1CC[C@@H](N)[C@@H](O[C@H]2[C@H](O)[C@@H](O[C@H]3O[C@H](CO)[C@@H](O)[C@H](N)[C@H]3O)[C@H](N)C[C@@H]2N)O1` [DIBEKACIN], which Phospholipidosis is on record?
A: Its Phospholipidosis is “Positive: strong inducer confirmed by electron microscopy”.

Q: For `Cc1cc(=O)n(-c2ccccc2)n1C.OC(O)C(Cl)(Cl)Cl.OC(O)C(Cl)(Cl)Cl` [DICHLORALPHENAZONE], which Phospholipidosis is on record?
A: The Phospholipidosis was “Negative: based on the absence of positive reported data from WMDD”.

Q: For `NS(=O)(=O)c1cc(Cl)c(Cl)c(S(N)(=O)=O)c1` [DICHLORPHENAMIDE], which Phospholipidosis is on record?
A: Its Phospholipidosis is “Negative: based on the absence of positive reported data from WMDD”.

Q: `C[C@H]1O[C@@H](O[C@H]2[C@@H](O)C[C@H](O[C@H]3[C@@H](O)C[C@H](O[C@H]4CC[C@@]5(C)[C@H](CC[C@@H]6[C@@H]5C[C@@H](O)[C@]5(C)[C@@H](C7=CC(=O)OC7)CC[C@]65O)C4)O[C@@H]3C)O[C@@H]2C)C[C@H](O)[C@@H]1O` [DIGOXIN] was tested. Which Phospholipidosis did it give?
A: The Phospholipidosis was “Negative: based on the absence of positive reported data from WMDD”.

Q: Which Phospholipidosis does the source give for `NNc1nnc(NN)c2ccccc12` [DIHYDRALAZINE] here?
A: Its Phospholipidosis is “Negative: based on the absence of positive reported data from WMDD”.

Q: With `CN(C)CCCN1c2ccccc2C(C)(C)c2ccccc21` [DIMETACRINE] as the compound, how does the Phospholipidosis read?
A: The Phospholipidosis was “Negative: based on the absence of positive reported data from WMDD”.

Q: How did the Phospholipidosis turn out when `CCCCC[C@H](O)/C=C/[C@@H]1[C@@H](C/C=C\CCCC(=O)O)[C@@H](O)C[C@H]1O` [DINOPROST] was run?
A: The Phospholipidosis was “Negative: based on the absence of positive reported data from WMDD”.

Q: With `OC(CCCN1CCCCC1)(c1ccccc1)c1ccccc1` [DIPHENIDOL] as the compound, how does the Phospholipidosis read?
A: Its Phospholipidosis is “Negative: based on the absence of positive reported data from WMDD”.

Q: With `CC(C)N(CCC(CCN1CCCCC1)(C(N)=O)c1ccccc1Cl)C(C)C` (stereo not given) [DISOBUTAMIDE] as the compound, how does the Phospholipidosis read?
A: The Phospholipidosis was “Positive: strong inducer confirmed by electron microscopy”.

Q: With `CC(C)N(CCC(C(N)=O)(c1ccccc1)c1ccccn1)C(C)C` (stereo not given) [DISOPYRAMIDE] as the compound, how does the Phospholipidosis read?
A: The Phospholipidosis was “Negative: based on the absence of positive reported data from WMDD”.

Q: Which Phospholipidosis does the source give for `CCN(CC)C(=S)S` [DITIOCARB] here?
A: Its Phospholipidosis is “Negative: based on the absence of positive reported data from WMDD”.

Q: `COc1cc(CC2c3c(cc(OC)c(OC)c3OC)CC[N+]2(C)CCCOC(=O)CCC(=O)OCCC[N+]2(C)CCc3cc(OC)c(OC)c(OC)c3C2Cc2cc(OC)c(OC)c(OC)c2)cc(OC)c1OC.[Cl-].[Cl-]` (stereo not given) [DOXACURIUM CHLORIDE] was tested. Which Phospholipidosis did it give?
A: Its Phospholipidosis is “Negative: based on the absence of positive reported data from WMDD”.

Q: `Cn1c(=O)c2c(ncn2CC2OCCO2)n(C)c1=O` [DOXOFYLLINE] was tested. Which Phospholipidosis did it give?
A: Its Phospholipidosis is “Negative: based on the absence of positive reported data from WMDD”.

Q: With `COc1cccc2c1C(=O)c1c(O)c3c(c(O)c1C2=O)C[C@@](O)(C(=O)CO)C[C@@H]3O[C@H]1C[C@H](N)[C@H](O)[C@H](C)O1` [DOXORUBICIN] as the compound, how does the Phospholipidosis read?
A: Its Phospholipidosis is “Negative: confirmed by electron microscopy”.

Q: For `CN(C)CCOC(C)(c1ccccc1)c1ccccn1` (stereo not given) [DOXYLAMINE], which Phospholipidosis is on record?
A: Its Phospholipidosis is “Negative: based on the absence of positive reported data from WMDD”.

Q: With `CCC(=O)O[C@H]1CC[C@H]2[C@@H]3CC[C@H]4CC(=O)[C@H](C)C[C@]4(C)[C@H]3CC[C@]12C` [DROMOSTANOLONE PROPIONATE] as the compound, how does the Phospholipidosis read?
A: Its Phospholipidosis is “Negative: based on the absence of positive reported data from WMDD”.

Q: How did the Phospholipidosis turn out when `Cn1c(=O)c2c(ncn2CC(O)CO)n(C)c1=O` (stereo not given) [DYPHYLLINE] was run?
A: Its Phospholipidosis is “Negative: based on the absence of positive reported data from WMDD”.

Q: For `CC[C@H]1CN2CCc3cc(OC)c(OC)cc3[C@@H]2C[C@@H]1C[C@H]1NCCc2cc(OC)c(OC)cc21` [EMETINE], which Phospholipidosis is on record?
A: Its Phospholipidosis is “Positive: weak inducer based on presence of foamy macrophages and cytoplasmic vacuolations”.

Q: Which Phospholipidosis does the source give for `CN[C@@H](C)[C@H](O)c1ccccc1` [EPHEDRINE] here?
A: Its Phospholipidosis is “Negative: based on the absence of positive reported data from WMDD”.

Q: Which Phospholipidosis does the source give for `CNC[C@H](O)c1ccc(O)c(O)c1` [EPINEPHRINE] here?
A: The Phospholipidosis was “Negative: based on the absence of positive reported data from WMDD”.
